The results in this text go back to patent US20150157739A1, “Imidazo[2,1]thiazol-3-one derivatives” (Hoffmann-La Roche Inc., priority 2012, published 2015).

Assay [1] addresses T1, aggregated recombinant human-microtubule associated protein Tau (Homo sapiens, UniProt P10636).
T1 construct: Recombinant human-microtubule associated protein Tau purified from E. coli is aggregated at a concentration of 5 μM with Arachidonic Acid (100 μM) in Tris 10 mM pH8, 24 h at 37° C
The assay can be described thus: Thiazin-red R displacement fluorescence assay on aggregated Tau. To be noted: displacement of Thiazin-red R from aggregated Tau; compound 0.3 nM to 10000 nM; 30 min room temperature; Ex 531 nm/Em 595 nm. The assay is classed as binding. The procedure:
(§1) Assay for Determination of […] for Tau and A-Beta
(§2) Recombinant human-microtubule associated protein Tau purified from E. coli is aggregated at a concentration of 5 μM with Arachidonic Acid (100 μM) in Tris 10 mM pH8, 24 h at 37° C. Synthetic Aβ40 is aggregated at a concentration of 50 μM with Arachidonic Acid (100 μM) in Tris 10 mM pH8, for three days at 37° C., under shaking at 150 rpm.
(§3) A saturation analysis of Thiazin-red R to the aggregated proteins is done to determine the affinity (Kd) of the Thiazin-red R to the aggregated protein.
(§4) Thiazin-red R will be added at the concentration corresponding to the Kd to the respective aggregated protein binding site, to induce a fluorescent signal that can be inhibited by the addition of a displacer compound.
(§5) In parallel, auto fluorescence of the compound is measured together with the aggregated proteins, but without Thiazin-red R. As negative control, ligand and aggregated protein is used and as positive control, Thiazin-red R, reference compound with known activity and aggregated protein is used.
(§6) Assay is performed in Perkin Elmer OptiPlate 384, black, 45 ul assay volume, assay buffer is DPBS no CaCl2 no MgCl2 (GIBCO N. 14020). Tested compounds are diluted in DMSO and 2 μl is added to the assay ([…]). Assay is started by the addition of the aggregated protein (competitive condition). Plates are shortly shacked (1 min with Sterico variomag teleshake) and incubated for 30 min at room temperature. Measurement are done with En:Vision (Perkin Elmer), at Excitation 531 nm/Emission 595 nm.

The target of assay [2] is T2, aggregated synthetic Aβ40 (Homo sapiens, UniProt P05067).
T2 construct: Synthetic Aβ40 is aggregated at a concentration of 50 μM
T2 sequence (P05067 672-711 limits assumed): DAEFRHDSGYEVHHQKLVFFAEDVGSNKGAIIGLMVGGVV
The assay can be described thus: Thiazin-red R displacement fluorescence assay on aggregated A-beta. The class given is binding. The conditions noted are these: displacement of Thiazin-red R from aggregated Aβ40; compound 0.3 nM to 10000 nM; 30 min room temperature; Ex 531 nm/Em 595 nm. The procedure: as §1, §2, §3, §4, §5, §6

T1 sequence (P10636 whole entry): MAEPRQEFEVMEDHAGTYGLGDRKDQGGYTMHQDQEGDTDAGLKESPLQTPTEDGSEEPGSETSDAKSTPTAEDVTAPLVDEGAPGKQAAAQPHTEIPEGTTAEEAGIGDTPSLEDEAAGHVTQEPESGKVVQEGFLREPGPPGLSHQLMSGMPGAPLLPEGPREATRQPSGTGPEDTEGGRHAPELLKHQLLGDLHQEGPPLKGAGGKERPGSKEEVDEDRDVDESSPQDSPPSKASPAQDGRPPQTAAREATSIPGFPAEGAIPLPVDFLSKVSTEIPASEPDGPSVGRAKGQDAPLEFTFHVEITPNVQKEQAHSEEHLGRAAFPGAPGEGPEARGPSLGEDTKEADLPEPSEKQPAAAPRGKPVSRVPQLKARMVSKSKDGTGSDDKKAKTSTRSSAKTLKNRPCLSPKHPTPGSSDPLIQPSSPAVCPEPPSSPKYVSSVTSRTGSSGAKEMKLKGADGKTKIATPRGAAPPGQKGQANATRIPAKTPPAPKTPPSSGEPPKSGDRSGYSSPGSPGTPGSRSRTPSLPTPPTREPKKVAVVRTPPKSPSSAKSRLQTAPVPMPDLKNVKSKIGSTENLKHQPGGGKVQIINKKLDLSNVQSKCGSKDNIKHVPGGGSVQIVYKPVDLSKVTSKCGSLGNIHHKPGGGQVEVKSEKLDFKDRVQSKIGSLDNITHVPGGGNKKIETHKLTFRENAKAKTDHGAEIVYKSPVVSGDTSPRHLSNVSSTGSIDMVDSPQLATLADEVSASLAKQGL

As for `COc1cc(/C=c2\sc3nc(-c4cccc(OC(F)(F)F)c4)cn3c2=O)cc(OC)c1O` [Example 18, 2-[1-(4-Hydroxy-3,5-dimethoxy-phenyl)-meth-(Z)-ylidene]-6-(3-trifluoromethoxy-phenyl)-imidazo[2,1-b]thiazol-3-one], the IC50 was found to be 4 nM in assay [1] and 114 nM in assay [2].
With `COc1cc(/C=c2\sc3nc(-c4cccc(C(F)(F)F)c4)cn3c2=O)cc(OC)c1O` [Example 19, 2-[1-(4-Hydroxy-3,5-dimethoxy-phenyl)-meth-(Z)-ylidene]-6-(3-trifluoromethyl-phenyl)-imidazo[2,1-b]thiazol-3-one], the IC50 in assay [1] stood at 1 nM; in assay [2], 115 nM.
Taken in the same sequence, the figures for `COc1cc(/C=c2\sc3nc(-c4cccc(C)c4)cn3c2=O)cc(OC)c1O` [Example 20, 2-[1-(4-Hydroxy-3,5-dimethoxy-phenyl)-meth-(Z)-ylidene]-6-m-tolyl-imidazo[2,1-b]thiazol-3-one] were 3 nM and 20 nM.
The corresponding values for `COc1cc(/C=c2\sc3nc(-c4cccc(OC(F)(F)F)c4)cn3c2=O)cc(Cl)c1O` [Example 22, 2-[1-(3-Chloro-4-hydroxy-5-methoxy-phenyl)-meth-(Z)-ylidene]-6-(3-trifluoromethoxy-phenyl)-imidazo[2,1-b]thiazol-3-one] are 3 nM and 198 nM.
Taken in the same sequence, the figures for `COc1cc(/C=c2\sc3nc(-c4ccc(C(=O)N(C)CCOCCF)cc4)cn3c2=O)cc(Cl)c1O` [Example 23, 4-{2-[1-(3-Chloro-4-hydroxy-5-methoxy-phenyl)-meth-(Z)-ylidene]-3-oxo-2,3-dihydro-imidazo[2,1-b]thiazol-6-yl}-N-[2-(2-fluoro-ethoxy)-ethyl]-N-methyl-benzamide] were 26 nM and 328 nM.
As for `COc1cc(/C=c2\sc3nc(-c4cccc(C(F)(F)F)c4)cn3c2=O)cc(Cl)c1O` [Example 24, 2-[1-(3-Chloro-4-hydroxy-5-methoxy-phenyl)-meth-(Z)-ylidene]-6-(3-trifluoromethyl-phenyl)-imidazo[2,1-b]thiazol-3-one], the IC50 was 3 nM in assay [1] and 123 nM in assay [2].
The corresponding values for `CCOc1cc(/C=c2\sc3nc(-c4ccc(Cl)cc4)cn3c2=O)cc(OC)c1O` [Example 26, 6-(4-Chloro-phenyl)-2-[1-(3-ethoxy-4-hydroxy-5-methoxy-phenyl)-meth-(Z)-ylidene]-imidazo[2,1-b]thiazol-3-one] are 2 nM and 4 nM.
Taken in the same sequence, the figures for `COc1cc(/C=c2\sc3nc(-c4ccc(Cl)cc4)cn3c2=O)cc(OCCF)c1O` [Example 27, 6-(4-Chloro-phenyl)-2-[1-(3-(2-fluoro-ethoxy)-4-hydroxy-5-methoxy-phenyl)-meth-(Z)-ylidene]-imidazo[2,1-b]thiazol-3-one] were 1 nM and 7 nM.
Taken in the same sequence, the figures for `COc1cc(/C=c2\sc3nc(-c4ccc(C(F)(F)F)c(F)c4)cn3c2=O)cc(Cl)c1O` [Example 28, 2-[1-(3-Chloro-4-hydroxy-5-methoxy-phenyl)-meth-(Z)-ylidene]-6-(3-fluoro-4-trifluoromethyl-phenyl)-imidazo[2,1-b]thiazol-3-one] were 23 nM and 1060 nM.
As for `COc1cc(/C=c2\sc3nc(-c4ccc(C(F)(F)F)c(F)c4)cn3c2=O)cc(OC)c1O` [Example 29], the IC50 in assay [1] was 11 nM; in assay [2] it was 43 nM.
The corresponding values for `COc1cc(/C=c2\sc3nc(-c4ccc(Cl)cc4)cn3c2=O)cc(OC(C)C)c1O` [Example 30, 6-(4-Chloro-phenyl)-2-[1-(4-hydroxy-3-isopropoxy-5-methoxy-phenyl)-meth-(Z)-ylidene]-imidazo[2,1-b]thiazol-3-one] are 6 nM and 16 nM.
The corresponding values for `CCCOc1cc(/C=c2\sc3nc(-c4ccc(Cl)cc4)cn3c2=O)cc(OC)c1O` [Example 31, 6-(4-Chloro-phenyl)-2-[1-(4-hydroxy-3-methoxy-5-propoxy-phenyl)-meth-(Z)-ylidene]-imidazo[2,1-b]thiazol-3-one] are 3 nM and 12 nM.
Taken in the same sequence, the figures for `COc1cc(/C=c2\sc3nc(-c4ccc(Cl)cc4)cn3c2=O)cc(C)c1O` [Example 32, 6-(4-Chloro-phenyl)-2-[1-(4-hydroxy-3-methoxy-5-methyl-phenyl)-meth-(Z)-ylidene]-imidazo[2,1-b]thiazol-3-one] were 7 nM and 39 nM.
For the compound `CCCOc1cc(/C=c2\sc3nc(-c4cccc(OC(F)(F)F)c4)cn3c2=O)cc(OC)c1O` [Example 33, 2-[1-(4-Hydroxy-3-methoxy-5-propoxy-phenyl)-meth-(Z)-ylidene]-6-(3-trifluoromethoxy-phenyl)-imidazo[2,1-b]thiazol-3-one], the IC50 worked out at 25 nM in assay [1] and 256 nM in assay [2].
Taken in the same sequence, the figures for `COc1cc(/C=c2\sc3nc(-c4cccc(OC(F)(F)F)c4)cn3c2=O)cc(OC(C)C)c1O` [Example 34, 2-[1-(4-Hydroxy-3-methoxy-5-isopropoxy-phenyl)-meth-(Z)-ylidene]-6-(3-trifluoromethoxy-phenyl)-imidazo[2,1-b]thiazol-3-one] were 26 nM and 437 nM.
Taken in the same sequence, the figures for `COc1cc(/C=c2\sc3nc(-c4cccc(OC(F)(F)F)c4)cn3c2=O)ccc1O` [Example 36, 2-[1-(4-Hydroxy-3-methoxy-phenyl)-meth-(Z)-ylidene]-6-(3-trifluoromethoxy-phenyl)-imidazo[2,1-b]thiazol-3-one] were 401 nM and more than 10000 nM.
In the case of `COc1cc(/C=c2\sc3nc(-c4cccc(OC(F)(F)F)c4)cn3c2=O)cc(Br)c1O` [Example 37, 2-[1-(3-Bromo-4-hydroxy-5-methoxy-phenyl)-meth-(Z)-ylidene]-6-(3-trifluoromethoxy-phenyl)-imidazo[2,1-b]thiazol-3-one], the half-maximal inhibitory concentration (IC50) turned out to be 6 nM in assay [1] and 552 nM in assay [2].
The corresponding values for `COc1cc(/C=c2\sc3nc(-c4cccc(Cl)c4)cn3c2=O)cc(F)c1O` [Example 39, 2-[1-(3-fluoro-4-hydroxy-5-methoxy-phenyl)-meth-(Z)-ylidene]-6-(3-chloro-phenyl)-imidazo[2,1-b]thiazol-3-one] are 11 nM and 412 nM.
For the compound `CCc1cc(/C=c2\sc3nc(-c4cccc(OC(F)(F)F)c4)cn3c2=O)cc(OC)c1O` [Example 40, 2-[1-(3-Ethyl-4-hydroxy-5-methoxy-phenyl)-meth-(Z)-ylidene]-6-(3-trifluoromethoxy-phenyl)-imidazo[2,1-b]thiazol-3-one], the figures for the IC50 in assay [1] and in assay [2] were 701 nM and more than 10000 nM, respectively.
Taken in the same sequence, the figures for `COc1cc(/C=c2\sc3nc(-c4cccc(C(F)(F)F)c4)cn3c2=O)cc(F)c1O` [Example 41, 2-[1-(3-fluoro-4-hydroxy-5-methoxy-phenyl)-meth-(Z)-ylidene]-6-(3-(trifluoromethyl)-phenyl)-imidazo[2,1-b]thiazol-3-one] were 16 nM and 1810 nM.
Consider `COc1cc(/C=c2\sc3nc(-c4ccc(F)c(C(F)(F)F)c4)cn3c2=O)cc(F)c1O` [Example 42, 2-[1-(3-fluoro-4-hydroxy-5-methoxy-phenyl)-meth-(Z)-ylidene]-6-(4-fluoro-3-(trifluoromethyl)-phenyl)-imidazo[2,1-b]thiazol-3-one], for which the IC50 turned out to be 24 nM in assay [1] and 198 nM in assay [2].
The corresponding values for `COc1cc(/C=c2\sc3nc(-c4ccccc4)cn3c2=O)cc(F)c1O` [Example 43, 2-[1-(3-fluoro-4-hydroxy-5-methoxy-phenyl)-meth-(Z)-ylidene]-6-phenyl-imidazo[2,1-b]thiazol-3-one] are 51 nM and 2320 nM.
The corresponding values for `COc1cc(/C=c2\sc3nc(-c4cccc(C#N)c4)cn3c2=O)cc(Cl)c1O` [Example 44, 3-{2-[1-(3-Chloro-4-hydroxy-5-methoxy-phenyl)-meth-(Z)-ylidene]-3-oxo-2,3-dihydro-imidazo[2,1-b]thiazol-6-yl}-benzonitrile] are 6 nM and 24000 nM.
The corresponding values for `COc1cc(/C=c2\sc3nc(-c4cccc(C#N)c4)cn3c2=O)cc(Br)c1O` [Example 45, 3-{2-[1-(3-Bromo-4-hydroxy-5-methoxy-phenyl)-meth-(Z)-ylidene]-3-oxo-2,3-dihydro-imidazo[2,1-b]thiazol-6-yl}-benzonitrile] are 25 nM and more than 10000 nM.
As to `COc1cc(/C=c2\sc3nc(-c4ccc(F)c(C(F)(F)F)c4)cn3c2=O)cc(Br)c1O` [Example 46, 2-[1-(3-bromo-4-hydroxy-5-methoxy-phenyl)-meth-(Z)-ylidene]-6-(4-fluoro-3-(trifluoromethyl)-phenyl)-imidazo[2,1-b]thiazol-3-one], the IC50 came to 28 nM in assay [1] and 5910 nM in assay [2].

One may read the IC50 as the midpoint of a concentration-inhibition curve.
